Measurements as given in US11180462B2, “Microbiocidal oxadiazole derivatives” (SYNGENTA PARTICIPATIONS AG, priority 2015, dated 2021).

Tests used:
[1] = system: Glomerella lagenarium (Colletotrichum lagenarium); assay: Fungicidal activity against Glomerella lagenarium (Colletotrichum lagenarium) liquid culture / cucumber / preventative (anthracnose); assay type: cell-based; details: Colletotrichum orbiculare; 20 ppm in the applied formulation; liquid culture (PDB), growth inhibition measured photometrically after 3 to 4 days; compared to untreated control; read-out: disease control
Summary of the method: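 Photometric read-out of fungal growth after 2–7 days, expressed as percent antifungal activity versus untreated check. Cryo-stored conidia in PDB; compound at 20 ppm; dark, 24 °C, 96% RH.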

[2] = system: Puccinia recondita f. Sp. Tritici; assay: Fungicidal activity against Puccinia recondita f. sp. tritici / wheat / leaf disc preventative (brown rust); assay type: in vivo; details: foliar, 200 ppm in the applied formulation, wheat leaf segments, preventative, compared to untreated control leaf disks, read-out: disease control
Summary of the method: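 Preventative leaf-segment test, wheat cv. Kanzler on water agar. Spray compound at 200 ppm, inoculate with spores 1 day later; 19° C., 75% rh, 12/12 h light. Read-out: % disease control vs untreated, 7 to 9 days after application.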

Phakopsora Pachyrhizi = assay: Fungicidal activity against Phakopsora pachyrhizi / soybean / leaf disc preventative (Asian soybean rust); assay type: in vivo; details: foliar, 200 ppm in the applied formulation, soybean leaf disks, compared to untreated control leaf disks, read-out: disease control
Summary of the method: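 Preventative soybean leaf-disc test: discs on water agar sprayed with diluted formulated compound, inoculated one day later with spores on the lower surface. Held 24–36 h dark at 20°C, 75% rh, then 12 h light/day; percent disease control versus untreated discs scored 12–14 days after application.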

[3] = system: Puccinia recondita f. Sp. Tritici; assay: Fungicidal activity against Puccinia recondita f. sp. tritici / wheat / leaf disc curative (brown rust); assay type: in vivo; details: foliar, 24 h, 200 ppm in the applied formulation, wheat leaf segments, curative (applied 1 day after inoculation), compared to untreated control leaf disks, read-out: disease control
Summary of the method: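 % disease control vs untreated, scored 6–8 d post-application. Wheat cv. Kanzler segments, spore-inoculated, dark 19° C/75% RH; formulated cpd applied 1 d post-inoc; then 19° C, 75% RH, 12 h L/12 h D.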

CON(Cc1ccc(-c2noc(C(F)(F)F)n2)cc1)C(=O)C1CC1 [Compound 1.2, N-methoxy-N-[[4-[5-(trifluoromethyl)-1,2,4-oxadiazol-3-yl]phenyl]methyl]-cyclopropane-carboxamide]
≥ 80%: inhibition of growth at 20 ppm [1] | pest or weed control at 200 ppm [2] | pest or weed control at 200 ppm (Phakopsora Pachyrhizi) | pest or weed control at 200 ppm [3]

COCC(=O)N(C)Cc1ccc(-c2noc(C(F)(F)F)n2)cc1 [Compound 1.519, 2-methoxy-N-methyl-N-[[4-[5-(trifluoromethyl)-1,2,4-oxadiazol-3-yl]phenyl]methyl]-acetamide]
≥ 80%: inhibition of growth at 20 ppm [1] | pest or weed control at 200 ppm [2] | pest or weed control at 200 ppm (Phakopsora Pachyrhizi) | pest or weed control at 200 ppm [3]

CCC(COC)C(=O)N(Cc1ccc(-c2noc(C(F)(F)F)n2)cc1)OC (centres unmarked) [Compound 1.57, N-methoxy-2-(methoxymethyl)-N-[[4-[5-(trifluoromethyl)-1,2,4-oxadiazol-3-yl]phenyl]methyl]-butanamide]
≥ 80%: inhibition of growth at 20 ppm [1] | pest or weed control at 200 ppm [2] | pest or weed control at 200 ppm (Phakopsora Pachyrhizi) | pest or weed control at 200 ppm [3]

O=C(C1CCCO1)N(O)Cc1ccc(-c2noc(C(F)(F)F)n2)cc1 (centres unmarked) [Compound 1.770, N-hydroxy-N-[[4-[5-(trifluoromethyl)-1,2,4-oxadiazol-3-yl]phenyl]methyl]-tetrahydrofuran-2-carboxamide]
≥ 80%: inhibition of growth at 20 ppm [1] | pest or weed control at 200 ppm [2] | pest or weed control at 200 ppm (Phakopsora Pachyrhizi) | pest or weed control at 200 ppm [3]

CON(Cc1ccc(-c2noc(C(F)(F)F)n2)cc1)C(=O)C(C)(C)O [Compound 1.784, 2-hydroxy-N-methoxy-2-methyl-N-[[4-[5-(trifluoromethyl)-1,2,4-oxadiazol-3-yl]phenyl]methyl]-propanamide]
≥ 80%: inhibition of growth at 20 ppm [1] | pest or weed control at 200 ppm [2] | pest or weed control at 200 ppm (Phakopsora Pachyrhizi) | pest or weed control at 200 ppm [3]

CCN(Cc1ccc(-c2noc(C(F)(F)F)n2)cc1)C(=O)COC [Compound 1.499, N-ethyl-2-methoxy-N-[[4-[5-(trifluoromethyl)-1,2,4-oxadiazol-3-yl]phenyl]methyl]-acetamide]
≥ 80%: inhibition of growth at 20 ppm [1] | pest or weed control at 200 ppm [2] | pest or weed control at 200 ppm (Phakopsora Pachyrhizi) | pest or weed control at 200 ppm [3]

CCC(C)N(Cc1ccc(-c2noc(C(F)(F)F)n2)cc1)C(=O)CCCOC (centres unmarked) [Compound 1.408, 4-methoxy-N-sec-butyl-N-[[4-[5-(trifluoromethyl)-1,2,4-oxadiazol-3-yl]phenyl]methyl]-butanamide]
≥ 80%: inhibition of growth at 20 ppm [1] | pest or weed control at 200 ppm [2] | pest or weed control at 200 ppm (Phakopsora Pachyrhizi) | pest or weed control at 200 ppm [3]

CCCN(Cc1ccc(-c2noc(C(F)(F)F)n2)cc1)C(=O)N(C)OC [Compound 3.30, 1-methoxy-1-methyl-3-propyl-3-[[4-[5-(trifluoromethyl)-1,2,4-oxadiazol-3-yl]phenyl]methyl]urea]
≥ 80%: inhibition of growth at 20 ppm [1] | pest or weed control at 200 ppm [2] | pest or weed control at 200 ppm (Phakopsora Pachyrhizi) | pest or weed control at 200 ppm [3]

CON(Cc1ccc(-c2noc(C(F)(F)F)n2)cc1)C(=O)Cc1ccccc1 [Compound 1.4, N-methoxy-2-phenyl-N-[[4-[5-(trifluoromethyl)-1,2,4-oxadiazol-3-yl]phenyl]methyl]-acetamide]
≥ 80%: inhibition of growth at 20 ppm [1] | pest or weed control at 200 ppm [2] | pest or weed control at 200 ppm (Phakopsora Pachyrhizi) | pest or weed control at 200 ppm [3]

CON(Cc1ccc(-c2noc(C(F)(F)F)n2)cc1)C(=O)CC(F)(F)F [Compound 1.36, 3,3,3-trifluoro-N-methoxy-N-[[4-[5-(trifluoromethyl)-1,2,4-oxadiazol-3-yl]phenyl]methyl]-propanamide]
≥ 80%: inhibition of growth at 20 ppm [1] | pest or weed control at 200 ppm [2] | pest or weed control at 200 ppm (Phakopsora Pachyrhizi) | pest or weed control at 200 ppm [3]

CON(Cc1ccc(-c2noc(C(F)(F)F)n2)cc1)C(=O)C1CSC1 [Compound 1.30, N-methoxy-N-[[4-[5-(trifluoromethyl)-1,2,4-oxadiazol-3-yl]phenyl]methyl]-thietane-3-carboxamide]
≥ 80%: inhibition of growth at 20 ppm [1] | pest or weed control at 200 ppm [2] | pest or weed control at 200 ppm (Phakopsora Pachyrhizi) | pest or weed control at 200 ppm [3]

CCN(Cc1ccc(-c2noc(C(F)(F)F)n2)cc1)C(=O)C1CC1F (centres unmarked) [Compound 1.511, N-ethyl-2-fluoro-N-[[4-[5-(trifluoromethyl)-1,2,4-oxadiazol-3-yl]phenyl]methyl]-cyclopropane-carboxamide]
≥ 80%: inhibition of growth at 20 ppm [1] | pest or weed control at 200 ppm [2] | pest or weed control at 200 ppm (Phakopsora Pachyrhizi) | pest or weed control at 200 ppm [3]

CC1(C(=O)N(Cc2ccc(-c3noc(C(F)(F)F)n3)cc2)CC(F)(F)F)COC1 [Compound 1.698, 3-methyl-N-(2,2,2-trifluoroethyl)-N-[[4-[5-(trifluoromethyl)-1,2,4-oxadiazol-3-yl]phenyl]methyl]-oxetane-3-carboxamide]
≥ 80%: inhibition of growth at 20 ppm [1] | pest or weed control at 200 ppm [2] | pest or weed control at 200 ppm (Phakopsora Pachyrhizi) | pest or weed control at 200 ppm [3]

O=C(C1CCOC1)N(O)Cc1ccc(-c2noc(C(F)(F)F)n2)cc1 (centres unmarked) [Compound 1.756, N-hydroxy-N-[[4-[5-(trifluoromethyl)-1,2,4-oxadiazol-3-yl]phenyl]methyl]-tetrahydrofuran-3-carboxamide]
≥ 80%: inhibition of growth at 20 ppm [1] | pest or weed control at 200 ppm [2] | pest or weed control at 200 ppm (Phakopsora Pachyrhizi) | pest or weed control at 200 ppm [3]

O=C(C1CCC1)N(O)Cc1ccc(-c2noc(C(F)(F)F)n2)cc1 [Compound 1.761, N-hydroxy-N-[[4-[5-(trifluoromethyl)-1,2,4-oxadiazol-3-yl]phenyl]methyl]-cyclobutane-carboxamide]
≥ 80%: inhibition of growth at 20 ppm [1] | pest or weed control at 200 ppm [2] | pest or weed control at 200 ppm (Phakopsora Pachyrhizi) | pest or weed control at 200 ppm [3]

C#CCN(Cc1ccc(-c2noc(C(F)(F)F)n2)cc1)C(=O)C(C)CC (centres unmarked) [Compound 1.191, 2-methyl-N-prop-2-ynyl-N-[[4-[5-(trifluoromethyl)-1,2,4-oxadiazol-3-yl]phenyl]methy]-butanamide]
≥ 80%: inhibition of growth at 20 ppm [1] | pest or weed control at 200 ppm [2] | pest or weed control at 200 ppm (Phakopsora Pachyrhizi) | pest or weed control at 200 ppm [3]

O=C(C1CCSCC1)N(Cc1ccc(-c2noc(C(F)(F)F)n2)cc1)CC1CC1 [Compound 1.230, N-(cyclopropylmethyl)-N-[[4-[5-(trifluoromethyl)-1,2,4-oxadiazol-3-yl]phenyl]methyl]-tetrahydrothiopyran-4-carboxamide]
≥ 80%: inhibition of growth at 20 ppm [1] | pest or weed control at 200 ppm [2] | pest or weed control at 200 ppm (Phakopsora Pachyrhizi) | pest or weed control at 200 ppm [3]

O=C(c1ccccc1)N(Cc1ccc(-c2noc(C(F)(F)F)n2)cc1)C1CC1 [Compound 1.150, N-cyclopropyl-N-[[4-[5-(trifluoromethyl)-1,2,4-oxadiazol-3-yl]phenyl]methyl]-benzamide]
≥ 80%: inhibition of growth at 20 ppm [1] | pest or weed control at 200 ppm [2] | pest or weed control at 200 ppm (Phakopsora Pachyrhizi) | pest or weed control at 200 ppm [3]

CCCN(Cc1ccc(-c2noc(C(F)(F)F)n2)cc1)C(=O)C1(C#N)CC1 [Compound 1.665, 1-cyano-N-propyl-N-[[4-[5-(trifluoromethyl)-1,2,4-oxadiazol-3-yl]phenyl]methyl]-cyclopropane-carboxamide]
≥ 80%: inhibition of growth at 20 ppm [1] | pest or weed control at 200 ppm [2] | pest or weed control at 200 ppm (Phakopsora Pachyrhizi) | pest or weed control at 200 ppm [3]

CCON(Cc1ccc(-c2noc(C(F)(F)F)n2)cc1)C(=O)C1(C)COC1 [Compound 1.623, N-ethoxy-3-methyl-N-[[4-[5-(trifluoromethyl)-1,2,4-oxadiazol-3-yl]phenyl]methyl]-oxetane-3-carboxamide]
≥ 80%: inhibition of growth at 20 ppm [1] | pest or weed control at 200 ppm [2] | pest or weed control at 200 ppm (Phakopsora Pachyrhizi) | pest or weed control at 200 ppm [3]
